Several values for one entry are separate records, joined by “and”; a condition that tells them apart may be missing. Identical values can stand only once. Like-named read-outs stand apart in the source and are kept apart here. Each block holds one molecule with its values, some of them ahead of it. Square brackets hold non-standard residues; d marks the D form. Peptide text beside a SMILES is read from it. * marks the point of attachment. NH(CH2)3O(2-CNpyrimidin5yl) = N#Cc1ncc(OCCCN*)cn1; 4Amb = NCc1ccc(C(=O)O)cc1; Pra = C#CC[CH](N)C(=O)O; SEt = CCS*
Experiments:
[1] = cited from earlier work; for 2nd order rate constant k: aromatic nitrile with L-cysteine, reported in Reference 13
[2] = tested on: β-galactosidase activity in 9L/LacZ cells
Experimental: FIG. 33 illustrates quantification of fluorescent intensity in the flow cytometry data in FIG. 3G.
Confocal Microscopy Imaging of 9L/LacZ Cell With B-SNAF2/4-BDP: Cells were incubated with B-SNAF2-BDP or B-SNAF4-BDP (2 μM) at 37° C. for 2 hours and then were then washed three times with cold PBS. The cells were fixed with 4% paraformaldehyde and stained with 2 μM Hoechst 33258 (Sigma) for 10 min. The cells were washed three times with PBS mounted with 2 μM Hoechst 33258 (Sigma) at 37° C. for 20 min. Cells were then fixed and imaged using a confocal laser scanning microscope (Zeiss LSM710; Zeiss America) with DAPI and DsRed filters. The images were processed using the ImageJ software package (National Institutes of Health).

[3] = Intramolecular cyclization kinetics (HPLC assay); assay type: physicochemical; conditions: PBS, pH 7.4, room temperature
Experimental: General Methods for Measuring Intramolecular Cyclization Kinetics: The 1st order rate constants of intramolecular cyclization of I-VI to produce cycl-I-VI, respectively were measured by HPLC assays adapted from the previously reported assay^38. To solutions of substrates I-VI in phosphate buffered saline (PBS) (1×, pH=7.4) were added a solution of TCEP (2.0 equiv.) in PBS (freshly prepared and the pH was adjusted to 7.4 by 1 N sodium hydroxide aqueous solution), affording a final concentration of 100 μM for the substrates. The mixture was kept at room temperature (23° C.) and monitored by HPLC at different time points. The concentration of remaining starting material was calculated using the peak integrals of the starting material at 254 nm. Based on first-order reaction law, In([At]/[A0]) was plotted against time and the slope of the linear regression result gives the first-order rate constant.

[4] = DLS of nanoaggregates of cyclized products; assay type: physicochemical; conditions: 10 μM, after raising pH from 4 to 7.4
Experimental: DLS Measurements: DLS measurements samples of I-VI were prepared by diluting fresh stock solutions of I-VI (20 mM in DMSO) to 10 μM solutions with HCl aqueous solution to adjust pH to 4. DLS measurements samples of cycl-I-VI were prepared by adding 0.5 μL of freshly prepared stock solutions of 1-VI (20 mM in DMSO), 6 μL saturated sodium bicarbonate solution into 993.5 μL H2O to adjust pH to 7.4.

[5] = Condensation kinetics of aromatic nitriles with L-cysteine (HPLC assay); assay type: physicochemical; conditions: for 2nd order rate constant k: aromatic nitrile with L-cysteine, PBS buffer, room temperature, HPLC assay; for second-order reaction rate: cyano-substituted aromatic with L-cysteine, phosphate-buffered saline (pH=7.4), FIG. 50A
Experimental: (§1) General Methods for Measuring Kinetics of Condensation Reactions Between Aromatic Nitriles and Aminothiols: The 2nd order rate constants for condensation reactions between aromatic nitriles and aminothiols were measured by using HPLC assays. To solutions of aromatic nitriles (100 μM) in phosphate buffered saline (PBS) (1×, pH=7.4) were added aminothiol (1.0 equiv.), TCEP (2.0 equiv.) and NaHCO3 (3 equiv.). The reaction solutions were kept at room temperature (23° C.) and monitored by HPLC at different time points. The conversion rates were calculated using the peak integrals of aromatic nitriles and the condensation products at 254 nm. Based on 2nd order reaction law, 1/[aromatic nitrile] was plotted against time and the slope of the linear regression result gives the 2nd order rate constant.

[6] = Condensation kinetics of aminothiols with CBT (HPLC assay); assay type: physicochemical; conditions: for 2nd order rate constant k: aminothiol with CBT, PBS buffer, room temperature, HPLC assay; for second-order reaction rate: substituted cysteine analogues with CBT, FIG. 50B
Experimental: as §1

recombinant human MetAP2 = recombinant human MetAP2 (Homo sapiens, UniProt P50579); experiment: Macrocyclization and nanoaggregation of M-SNAT with recombinant MetAP2; conditions: for macrocyclization (HPLC, mass spectrometry): TCEP
[7] = tested on: MetAP2 activity in PC3 cells; experiment: Imaging MetAP2 activity in PC3 cells (post click Cy5 labeling); assay type: cell-based, human; conditions: for Cy5 post-labeled fluorescence in cells: 24 h
Experimental: FIG. 45B illustrates fluorescence microscopy imaging of cy5 post-labeled M-SNAT (20 μM) with or without TNP470 and M-SNAT-ctrl (20 μM) in PC3 cells. Permealized cells were also stained with DAPI (blue).
Imaging MetAP2 activity in cancer cells: Cell uptake and MetAP2 specific activation of M-SNAT and M-SNAT-ctrl were evaluated in PC3 and DU145 cells with the MetAP2-specific inhibitor TNP-470. Post click fluorescent labeling was performed as illustrated in FIG. 45A to locate the nanoaggregation in cells and avoid the possible interference with probe uptake by pre-conjugating a large Cy5 fluorophore.

[8] = tested on: MetAP2 activity in DU145 cells; experiment: Imaging MetAP2 activity in DU145 cells (post click Cy5 labeling); assay type: cell-based, human; conditions: for Cy5 post-labeled fluorescence in cells: DU145, 20 μM, 24 h
Experimental: Imaging MetAP2 activity in cancer cells: […] Post click fluorescent labeling was performed as illustrated in FIG. 45A to locate the nanoaggregation in cells and avoid the possible interference with probe uptake by pre-conjugating a large Cy5 fluorophore.

[9] = tested on: MetAP2 activity in 22Rv1 cells; experiment: Imaging MetAP2 activity in 22Rv1 cells (post click Cy5 labeling); assay type: cell-based, human
PC3 tumors = experiment: 18F-M-SNAT PET/CT imaging of PC3 xenograft mice; assay type: in vivo
Experimental: FIG. 47A illustrates images after 90 min programed PET/CT scan; n=4. About 150 μCi ^18F-M-SNAT were injected. White and gray indicate CT signal; a thresholding method was utilized to mask the relatively high uptake in liver, spleen, kideney and bladder.
PET/CT imaging of MetAP2 activity in tumor: Before applying fluorine-18 labeled M-SNAT (^18F-M-SNAT) for studies in vivo, the stability of non-radioactive ^19F-M-SNAT was investigated in mouse serum. The ability of ^18F-M-SNAT to indicate MetAP2 activity was assessed in male nude mice bearing subcutaneous PC3 tumors. When the tumors (right shoulder) were grown to 300-500 mm^3, PBS with or without TNP-470 were injected subcutaneously at 50 mg/kg at a remote position (lower left on the back) every other day for 4 days and then injected every day for 5 more days. The last injection was 4 h before imaging (FIG. 47A).
On the day of imaging, fluorine-18 was generated using a cyclotron and conjugated to M-SNAT in a rapid two-step chemical synthesis (FIG. 44). About 150 μCi (8.9 pmol)^18F-M-SNAT were injected to mice intravenously for a programed microPET/CT whole body scan through 90 min. […] About 1.3% was retained at 90 min. In comparison, the inhibitor-treated mice hold about 1% ID/cc through the whole scanning period (FIG. 47C). […] Tumors were resected 20 h after tracer injection for IHC staining ex vivo.

Chain of recombinant human MetAP2 (P50579 whole entry): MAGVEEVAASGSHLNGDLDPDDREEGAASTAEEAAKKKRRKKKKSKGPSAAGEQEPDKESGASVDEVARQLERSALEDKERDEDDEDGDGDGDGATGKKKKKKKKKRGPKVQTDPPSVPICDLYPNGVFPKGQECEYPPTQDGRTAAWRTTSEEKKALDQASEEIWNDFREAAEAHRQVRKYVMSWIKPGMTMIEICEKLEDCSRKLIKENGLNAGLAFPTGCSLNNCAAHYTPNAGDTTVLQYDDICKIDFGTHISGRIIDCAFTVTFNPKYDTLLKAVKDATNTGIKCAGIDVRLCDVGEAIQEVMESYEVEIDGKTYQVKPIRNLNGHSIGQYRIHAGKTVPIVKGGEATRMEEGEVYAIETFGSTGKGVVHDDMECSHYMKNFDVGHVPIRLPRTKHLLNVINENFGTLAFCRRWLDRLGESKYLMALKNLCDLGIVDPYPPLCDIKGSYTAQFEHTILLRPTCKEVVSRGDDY

SMILES: Cc1csc(C#N)n1 [4-methyl-2-thiazolecarbonitrile]
second-order reaction rate ([1]; with cysteine, Ye et al. (2011)): 0.7 M⁻¹ s⁻¹

SMILES: CCSSCC(NC(=O)OCc1ccc(OC2O[C@H](CO)[C@H](O)[C@H](O)C2O)cc1)C(=O)NCC(=O)NC(CCCCNC(=O)CCc1ccc2n1[B-](F)(F)[N+]1=C(C)C=C(C)C1=C2)C(=O)NCc1ccc(C(=O)NCCCOc2cnc(C#N)nc2)cc1 (stereo partly drawn) [B-SNAF4-BDP]
retention of fluorescent signal, 9L/LacZ over 9L/Luc ([2]; 2 μM, 37° C., 2 hours): 2.5 fold
retention of fluorescent signal, 9L/LacZ versus 9L/Luc ([2]; fluorescent imaging): significantly higher retention

diameter of nanoaggregates (DLS) [4]: 80 nm
SMILES: C#CCC(NC(=O)C(N)CS)C(=O)NCc1ccc(C(=O)NCCCOc2ccc3nc(C#N)ccc3c2)cc1 (stereo not drawn) [Compound II]
1st order rate constant of intramolecular cyclization [3]: 1.2×10^−3 s^−1 and 1.2±0.04×10^−3 s^−1

diameter of nanoaggregates (DLS) [4]: 80 nm
SMILES: N#Cc1ccc2cc(OCCCNC(=O)c3ccc(CNC(=O)C(N)CS)cc3)ccc2n1 (stereo not drawn) [Compound I]

SMILES: N#Cc1ccccn1 [Entry 3, 2-pyridinecarbonitrile]
2nd order rate constant k [1]: No Rxn^a
2nd order rate constant k ([1]; listed as 2-pyridinecarbonitrile): no reaction was observed

SMILES: N#Cc1ncc(Br)cn1 [Entry 4, 5-bromo-2-pyrimidinecarbonitrile]
2nd order rate constant k [5]: 2.21 ± 0.037 M⁻¹ s⁻¹
2nd order rate constant k ([5]; listed as 5-bromo-2-pyrimidinecarbonitrile): 2.21 M⁻¹ s⁻¹
second-order reaction rate [5]: 0.58 M⁻¹ s⁻¹

SMILES: N#Cc1ncccn1 [Entry 5, 2-pyrimidinecarbonitrile]
2nd order rate constant k [5]: 0.99 ± 0.17 M⁻¹ s⁻¹
2nd order rate constant k ([5]; listed as 2-pyrimidinecarbonitrile): 0.99 M⁻¹ s⁻¹
second-order reaction rate [5]: 0.17 M⁻¹ s⁻¹

SMILES: CC(C)(C)OC(=O)NCCCOc1cnc(C#N)nc1 [Entry 6]
2nd order rate constant k [5]: 0.01 ± 0.0017 M⁻¹ s⁻¹
2nd order rate constant k ([5]; listed as alkoxy-substituted 2-pyrimidinecarbonitrile): 0.01 M⁻¹ s⁻¹

SMILES: CC(C)(S)[C@@H](N)C(=O)O [Entry 7, D-penicillamine]
2nd order rate constant k [6]: 0.029 ± 0.003 M⁻¹ s⁻¹
2nd order rate constant k ([6]; listed as D-penicillamine): 0.029 M⁻¹ s⁻¹
second-order reaction rate [6]: 0.06 M⁻¹ s⁻¹

SMILES: C[C@](N)(CS)C(=O)O [Entry 8, 2-methyl-L-cysteine]
2nd order rate constant k [6]: 5.35 ± 0.8 M⁻¹ s⁻¹
2nd order rate constant k ([6]; listed as 2-methyl-L-cysteine): 5.35 M⁻¹ s⁻¹
second-order reaction rate [6]: 5.7 M⁻¹ s⁻¹

macrocyclization (HPLC, mass spectrometry) (recombinant human MetAP2; 10 μM, MetAP2 7.5 μg/ml, 24 h): could not cyclize
SMILES: C#CCC(NC(=O)CNC(=O)C(CSC)NC(=O)C(N)CCSC)C(=O)NCc1ccc(C(=O)NCCCOc2cnc(C#N)nc2)cc1 (stereo not drawn) [M-SNAT-ctrl] (H-MC(Me)G[Pra][4Amb]-{NH(CH2)3O(2-CNpyrimidin5yl)}; configuration not given here)
Cy5 post-labeled fluorescence in cells ([7]; PC3, 20 μM): not
Cy5 post-labeled fluorescence in cells [8]: not

SMILES: C#CCC(NC(=O)CNC(=O)C(CSSCC)NC(=O)C(N)CCSC)C(=O)NCc1ccc(C(=O)NCCCOc2cnc(C#N)nc2)cc1 (stereo not drawn) [M-SNAT] (H-MC(SEt)G[Pra][4Amb]-{NH(CH2)3O(2-CNpyrimidin5yl)}; configuration not given here)
average diameter of nanoparticles (DLS, TEM) (recombinant human MetAP2; 10 μM, MetAP2 7.5 μg/ml, 24 h): 861 nm
diameter range of nanoparticles (recombinant human MetAP2; 10 μM, MetAP2 7.5 μg/ml, 24 h): 531-1281 nm
macrocyclization (HPLC, mass spectrometry) (recombinant human MetAP2; 10 μM, MetAP2 7.5 μg/ml, 24 h): converted into M-SNAT-cyclized
average diameter of nanoparticles (DLS) (recombinant human MetAP2; FIG. 44B): 861 nM
diameter range of nanoparticles (DLS) (recombinant human MetAP2; FIG. 44B): 531 to 1281 nM
Cy5 post-labeled fluorescence in cells ([7]; MetAP2 knockdown PC3 cells): much weaker red fluorescence
Cy5 post-labeled fluorescence in cells ([7]; PC3, 20 μM): red fluorescence was observed
accumulation in cells ([8]; DU145): dose-dependent manner
Cy5 post-labeled fluorescence in cells [8]: red fluorescence was observed
Cy5 post-labeled fluorescence in cells ([9]; MetAP2 knockdown 22Rv1 cells, 24 h): much weaker red fluorescence

SMILES: CO[C@@H]1[C@H](OC(=O)NC(=O)CCl)CC[C@]2(CO2)[C@H]1[C@@]1(C)O[C@@H]1CC=C(C)C [TNP-470, reference compound]
effect on M-SNAT fluorescence ([7]; PC3, TNP-470 2 μM): significantly reduced
inhibition of M-SNAT signal (flow cytometry) ([7]; PC3 cells treated, permealized and post-labeled): 22.7%
effect on M-SNAT fluorescence ([9]; 22Rv1, TNP-470 2 μM): significantly reduced
tumor growth versus PBS-treated group (PC3 tumors; 50 mg/kg s.c., PC3 tumors): no significant difference

clearance (PC3 tumors; PC3 xenograft mice, 90 min PET/CT): fast clearance by kidney to bladder
SMILES: CCSSCC(NC(=O)C(N)CCSC)C(=O)NCC(=O)NC(Cc1cn(CCOCCOCCOCC[18F])nn1)C(=O)NCc1ccc(C(=O)NCCCOc2cnc(C#N)nc2)cc1 (stereo not drawn) [^18F-M-SNAT]
tumor retention (PC3 tumors; PBS-treated PC3 tumors, at 90 min): About 1.3%
tumor uptake (PC3 tumors; PBS-treated PC3 tumors, within 10 min): 1.6 % ID/cc
tumor uptake (PC3 tumors; TNP-470 (inhibitor)-treated mice, whole scanning period): about 1 % ID/cc

diameter of nanoaggregates (DLS) [4]: around 80 nm
SMILES: C#CCC1NC(=O)C2CSC(=N2)c2ccc3cc(ccc3n2)OCCCNC(=O)c2ccc(cc2)CNC1=O (stereo not drawn) [cycl-II]

SMILES: C#CCC1NC(=O)CNC(=O)C2CSC(=N2)c2ncc(cn2)OCCCNC(=O)c2ccc(cc2)CNC1=O (stereo not drawn) [cycl-IV]
1st order rate constant of intramolecular cyclization [3]: 2.1±0.07×10^−3 s^−1

diameter of nanoaggregates (DLS) [4]: around 80 nm
SMILES: O=C1NCCCOc2ccc3nc(ccc3c2)C2=NC(CS2)C(=O)NCc2ccc1cc2 (stereo not drawn) [cycl-I]

SMILES: C#CCC1NC(=O)CNC(=O)C2(C)CSC(=N2)c2ncc(cn2)OCCCNC(=O)c2ccc(cc2)CNC1=O (stereo not drawn) [cycl-VI]
1st order rate constant of intramolecular cyclization [3]: 2.7±0.1×10^−3 s^−1

SMILES: C#CCC1NC(=O)CCNC(=O)C2CSC(=N2)c2ncc(cn2)OCCCNC(=O)c2ccc(cc2)CNC1=O (stereo not drawn) [cycl-V]
1st order rate constant of intramolecular cyclization [3]: 8.0±0.6×10^−4 s^−1

From patent publication US11679168B2, “Caspase-3-triggered molecular self-assembling PET probes and uses thereof” (The Board of Trustees of the Leland Stanford Junior …, priority 2018, dated 2023)
